Measured values: US20210212957A1, “MEDICAL DEVICE FOR PREVENTING AND/OR TREATING INFECTIONS OF SKIN LESIONS” (FASTMEDITALIA S.R.L., priority 2020, published 2021)

Test system: Staphylococcus aureus (gram-positive bacterium; ATCC 6538)
Test: bacterial reduction in a bacterial suspension in dynamic contact with the medical device
Format: cell-based
Details: temperature environment; dynamic contact time 1 hour; 50 grams of bacterial suspension at 10^5 cells, 1 gram of medical device where present
Method: In Table 1, 50 grams of bacterial suspension at a concentration of 10^5 cells was subjected to dynamic contact with 1 gram of the medical device in the presence of cocamido-propyl-betaine (an amphoteric surfactant).
The same experiment was then carried out using no surfactant at all (Table 2) or non-ionic or anionic surfactants (Tables 3 and 4).

| Compound | Bacterial reduction % |
| --- | --- |
| CCCCCCCCCCCCOS(=O)(=O)[O-].[Na+] [Sodium dodecilsulphate] | 16% |
| Polyoxyethylenesorbitan monolaurate | 5% |
| cocamidopropyl betaine [2 g/l of cocamidopropyl betaine] | 12% |
